Assay results: PMC4790851, “Iminosugars Inhibit Dengue Virus Production via Inhibition of ER Alpha-Glucosidases—Not Glycolipid Processing Enzymes” (PLoS Neglected Tropical Diseases, 2016)

Legend:
MDMΦs = experiment: Cytotoxicity, MTS cell proliferation assay; type: cell-based, human
Experimental: Cytotoxicity of compounds was assessed by a cell proliferation assay for metabolic activity using a CellTiter 96 AQueous One Solution Cell Proliferation Assay (Promega) as per the manufacturer’s instructions. Briefly, 20 μl of a solution containing tetrazolium compound [3-(4,5-[…])-5-(3-carboxymethoxyphenyl)-2-(4-sulfophenyl)-2H-tetrazolium; MTS] and electron coupling reagent (phenazine ethosulfate) was added to cells covered or suspended in 100 μl of culture medium in a 96-well plate. Samples were incubated for approximately 4 hours (37°C, 5% CO2), and the absorbance at 490 nm (A490) was measured on a SpectraMax M5 microplate reader (Molecular Devices).

[1] = tested on: monosialodihexosylganglioside (GM3) production; experiment: Glycosphingolipid analysis: GM3 levels in MDMΦs by NP-HPLC; type: cell-based, human; settings: 48 h; for GM3 production (%): uninfected MDMΦ, normalized to untreated controls, mean ± SD, min. 3 donors
ER α-glucosidase I = molecular target: T1, ER α-glucosidase I (Homo sapiens, UniProt Q13724); experiment: Free oligosaccharide analysis in MDMΦs: Glc3Man5GlcNAc1; type: cell-based; settings: 48 h; for accumulation of Glc3Man5GlcNAc1: MDMΦs; for FOS representative of ER α-glucosidase I inhibition (Glc3Man5GlcNAc1): MNTD of iminosugar (NB-DNJ 100 μM), uninfected MDMΦs
T1 construct: endogenous in cells; host or cells: primary human monocyte-derived macrophages (MDMΦ)
T1 sequence (Q13724 1-837): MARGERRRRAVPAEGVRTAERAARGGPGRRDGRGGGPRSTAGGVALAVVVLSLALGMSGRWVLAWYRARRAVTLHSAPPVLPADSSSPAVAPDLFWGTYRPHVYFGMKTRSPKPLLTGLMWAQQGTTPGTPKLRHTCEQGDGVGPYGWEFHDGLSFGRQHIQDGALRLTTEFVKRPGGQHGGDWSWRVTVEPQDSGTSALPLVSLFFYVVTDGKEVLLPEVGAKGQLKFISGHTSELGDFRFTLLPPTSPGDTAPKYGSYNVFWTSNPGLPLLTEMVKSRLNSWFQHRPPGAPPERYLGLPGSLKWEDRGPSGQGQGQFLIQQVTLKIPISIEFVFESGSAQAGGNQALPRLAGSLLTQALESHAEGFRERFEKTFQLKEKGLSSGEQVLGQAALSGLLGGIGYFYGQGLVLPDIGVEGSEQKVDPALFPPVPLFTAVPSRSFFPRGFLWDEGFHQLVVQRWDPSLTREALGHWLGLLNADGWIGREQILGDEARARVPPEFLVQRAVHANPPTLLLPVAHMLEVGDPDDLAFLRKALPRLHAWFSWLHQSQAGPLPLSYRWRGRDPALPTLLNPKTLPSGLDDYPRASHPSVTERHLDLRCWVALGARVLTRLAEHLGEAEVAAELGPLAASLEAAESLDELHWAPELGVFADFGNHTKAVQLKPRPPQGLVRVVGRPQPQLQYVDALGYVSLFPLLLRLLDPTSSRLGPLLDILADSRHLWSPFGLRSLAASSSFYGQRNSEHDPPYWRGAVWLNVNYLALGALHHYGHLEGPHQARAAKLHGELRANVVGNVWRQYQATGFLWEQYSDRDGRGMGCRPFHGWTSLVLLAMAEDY
Experimental: MDMΦ were infected with DENV2 16681 diluted to a multiplicity of infection (MOI) of 1 in X-VIVO10 without supplements for 90 minutes (20°C, with rocking). Upon removal of virus, fresh MDMΦ growth medium without IL-4 but containing serial dilutions of drug or control was placed on the cells, and cells were incubated for 48 hours (37°C, 5% CO2). For collection of infectious virus, supernatant was harvested and centrifuged for 5 minutes (room temperature, 400 x g) to pellet any cells/debris, and supernatants were aliquoted and stored at -80°C until analysis by plaque assay. In the case of FOS and GSL assays where MDMΦ were uninfected, treatments were essentially as above except that no virus was added and cells were washed three times with sterile PBS after 24 or 48 hours as per sample time point. On the third wash, cells were removed from tissue culture plastic by mechanical disruption (scraping) and transferred to microcentrifuge tubes for centrifugation (room temperature, 4000 x g, 5 minutes). Cells were lysed by three cycles of freeze-thawing (alternating room temperature and –80°C) in deionised H2O and stored at –80°C for subsequent protein, FOS, or GSL assay.
MDMΦ FOS were detected as previously described by Alonzi et al.. Cells were cultured in 6-well plates as described above, and protein lysates were prepared according to the freeze/thaw protocol. Following cell lysis, samples were subjected to mixed-bed ion exchange and then lyophilised. FOS were labelled with 2-aminobenzoic acid (2-AA) and purified using a DPA-6S column (Sigma). Unconjugated 2-AA was removed by phase splitting with ethyl acetate, and samples were lyophilised and resuspended in water and then purified using a con-A column. Glycans were separated by normal phase-high performance liquid chromatography (NP-HPLC), and peak area was used to assess molar quantity in comparison to standards of known identity and quantity. FOS generation was normalised to protein concentration based on a modified Bradford assay as previously described. Briefly, cell lysates were added in a 1:1 volumetric ratio to 1x Bradford Quick Start Reagent (Bio-Rad) and incubated at 20°C for 5 minutes. Absorbance values (Axxx) at 595 nm and 420 nm were measured, and the ratio of A595 to A420 was used to determine protein concentration in comparison to a serially diluted standard of bovine serum albumin.

| Compound | MNTD (maximum non-toxic dose tested) (MDMΦs) | GM3 production (%) ([1]; 100 μM (MNTD)) | accumulation of Glc3Man5GlcNAc1 (ER α-glucosidase I; 1 μM, all donors) | accumulation of Glc3Man5GlcNAc1 (ER α-glucosidase I; 31.6 and 100 μM) | concentration up to which cytotoxicity was not detected (MDMΦs) | FOS representative of ER α-glucosidase I inhibition (Glc3Man5GlcNAc1) (ER α-glucosidase I) | inhibition at 10 µM ([1]; Homo sapiens, 10 μM, MDMΦs) | EC50 ([1]; Homo sapiens, titration 1 to 100 μM, three donors, read-out: 95% CI for GM3 EC50) | GM3 production (%) ([1]; 31.6 μM (MNTD)) |
| --- | --- | --- | --- | --- | --- | --- | --- | --- | --- |
| CCCC(=O)O[C@H]1CN2CC[C@H](O)[C@@H]2[C@@H](O)[C@@H]1O [Celgosivir, 6-O-butanoyl-castanospermine] | 100 µM | 100.9 ± 4.1% | not Glc3Man5GlcNAc1 | increasing accumulation of Glc3Man5GlcNAc1 |  |  |  |  |  |
| CCCCN1C[C@H](O)[C@@H](O)[C@@H](O)[C@H]1CO [NB-DGJ] | 100 µM | 7.3 ± 1.9% |  |  | > 100 µM | fail to produce detectable ER α-glucosidase associated FOS |  |  |  |
| CCCCN1C[C@H](O)[C@@H](O)[C@H](O)[C@H]1CO [NB-DNJ, N-butyl-DNJ] | 100 µM | 8.8 ± 3.6% | not Glc3Man5GlcNAc1 |  |  | accumulation of peaks representative of inhibition of both α-glucosidases | 90 to 95% | 800 to 1370 nM |  |
| CCCCCCCCCN1C[C@H](O)[C@@H](O)[C@@H](O)[C@H]1CO [NN-DGJ] | 31.6 µM |  |  |  |  | fail to produce detectable ER α-glucosidase associated FOS |  |  | 4.9 ± 1.9% |
